This is an account of results in patent US11518760B2 (Liverpool School of Tropical Medicine, priority 2017, dated 2022).

Some results are limits rather than exact numbers.

In the experiment the test system is C6/36 Aedes albopictus cell line infected with Wolbachia pipientis (Wolbachia strain wAlbB). Put plainly: In vitro insect cell line assay (anti-Wolbachia screen, SYTO 11 high content imaging). The class given is cell-based. To be noted: 168 h; C6/36 Aedes albopictus cells infected with Wolbachia pipientis wAlbB, 7 days incubation, SYTO 11 imaging; read-out: In vitro anti-Wolbachia activity. The gist of the method: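 Wolbachia wAlbB-infected C6/36 Aedes albopictus cells were exposed to compounds at a final 5 μM for 7 days at 26 °C, with DMSO-medium wells as untreated controls. Cells were then stained with SYTO 11 for 15 min, imaged by high-content microscopy and scored by texture analysis.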
Take `FC(F)(F)c1ncccc1CNc1nc(N2CCOCC2)nc2ncccc12` [Example 192, 2-morpholino-N-((2-(trifluoromethyl)pyridin-3-yl)methyl)pyrido[2,3-d]pyrimidin-4-amine]: the EC50 was in the range of 10 to 100 nM.

With `CC(Nc1ncnc2cc(Cl)sc12)c1ccccc1C(F)(F)F` (stereo not shown) [Example 101], the EC50 lay in the range of 1000 to 100000 nM.

`O=C1CCCN1CCCNc1ncnc2ccsc12` [Example 34, 1-(3-(thieno[3,2-d]pyrimidin-4-ylamino)propyl)pyrrolidin-2-one]: the EC50 was 1000 to 100000 nM. The same measure for `FC(F)(F)c1ncccc1CNc1nc(N2CCCC2C(F)(F)F)nc2ncccc12` (stereo not shown) [Example 264, N-((2-(trifluoromethyl)pyridin-3-yl)methyl)-2-(2-(trifluoromethyl)pyrrolidin-1-yl)pyrido[2,3-d]pyrimidin-4-amine]: < 0.01 nM; for `FC(F)(F)c1ncccc1C1CCN1c1nc(N2CCC(Cl)CC2)nc2ncccc12` (stereo not shown) [Example 217, 2-(4-chloropiperidin-1-yl)-4-(2-(2-(trifluoromethyl)pyridin-3-yl)azetidin-1-yl)pyrido[2,3-d]pyrimidine]: < 0.01 nM; for `FC(F)(F)Oc1ccccc1CNc1ncnc2ccsc12` [Example 24, N-(2-(trifluoromethoxy)benzyl)thieno[3,2-d]pyrimidin-4-amine]: 100 to 1000 nM.

As to `CC(C)C1COCCN1c1nc(NCc2cccnc2C(F)(F)F)c2cccnc2n1` (stereo not shown) [Example 269, 2-(3-isopropylmorpholino)-N-((2-(trifluoromethyl)pyridin-3-yl)methyl)pyrido[2,3-d]pyrimidin-4-amine], the EC50 lay in the range of 1 to 10 nM. For `CC1CN(c2nc(NCc3cccnc3C(F)(F)F)c3cccnc3n2)CCO1` (stereo not shown) [Example 241, 2-(2-methylmorpholino)-N-((2-(trifluoromethyl)pyridin-3-yl)methyl)pyrido[2,3-d]pyrimidin-4-amine] the value was 0.01 to 1 nM; for `CC(C)Nc1nc(NCc2ccccc2S(C)(=O)=O)c2ncccc2n1` [Example 122, N^2-isopropyl-N^4-(2-(methylsulfonyl)benzyl)pyrido[3,2-d]pyrimidine-2,4-diamine], 1000 to 100000 nM; for `FC(F)(F)c1ccccc1CNc1nc(NC2CNC2)nc2ncccc12` [Example 141, N^2-(azetidin-3-yl)-N^4-(2-(trifluoromethyl)benzyl)pyrido[2,3-d]pyrimidine-2,4-diamine], 100 to 1000 nM. The same measure for `Oc1nc(NCc2cccnc2C(F)(F)F)c2cccnc2n1` [Example 182, 4-(((2-(trifluoromethyl)pyridin-3-yl)methyl)amino)pyrido[2,3-d]pyrimldin-2-ol]: 1000 to 100000 nM; for `CC(C)Nc1nc(NCc2ccc(F)cc2)c2ccccc2n1` [Example 134, N^4-(4-fluorobenzyl)-N^2-isopropylquinazoline-2,4-diamine]: 1000 to 100000 nM. The same measure for `CC(C)(C)N(Cc1ccccc1C(F)(F)F)c1ncnc2ccsc12` [Example 85]: 100 to 1000 nM. For `CN(C)CCNc1nc(NCc2ccccc2C(F)(F)F)c2sccc2n1` [Example 89, N^2-(2-(dimethylamino)ethyl)-N^4-(2-(trifluoromethyl)benzyl)thieno[3,2-d]pyrimidine-2,4-diamine], the EC50 lay in the range of 1000 to 100000 nM. For `FC(F)(F)c1ncccc1CNc1nc(N2CCOC3(CCCC3)C2)nc2ncccc12` [Example 272, 2-(6-oxa-9-azaspiro[4.5]decan-9-yl)-N-((2-(trifluoromethyl)pyridin-3-yl)methyl)pyrido[2,3-d]pyrimidin-4-amine], the EC50 was 0.01 to 1 nM. For `FC(F)C1CN(c2nc(NCc3ccccc3C(F)(F)F)c3cccnc3n2)C1` [Example 276, 2-(3-(difluoromethyl)azetidin-1-yl)-N-(2-(trifluoromethyl)benzyl)pyrido[2,3-d]pyrimidin-4-amine] the value was < 0.01 nM; for `CN(C)c1nc(NCc2c(F)cccc2C(F)(F)F)c2cccnc2n1` [Example 169, N^4-(2-fluoro-6-(trifluoromethyl)benzyl)-N^2,N^2-dimethylpyrido[2,3-d]pyrimidine-2,4-diamine], 100 to 1000 nM. The same measure for `O=C(Nc1ncnc2ccsc12)c1ccccc1Cl` [Example 40, 2-chloro-N-(thieno[3,2-d]pyrimidin-4-yl)benzamide]: 1000 to 100000 nM; for `N#Cc1nc(NCc2ccccc2C(F)(F)F)c2sccc2n1` [Example 80]: 10 to 100 nM; for `CC(C)Nc1nc(NCc2ccc(F)cc2)c2sccc2n1` [Example 15, N^4-(4-fluorobenzyl)-N^2-isopropylthieno[3,2-d]pyrimidine-2,4-diamine]: 100 to 1000 nM.

In the case of `CC(C)Nc1nc(NCc2ccccc2C(F)(F)F)c2ccccc2n1` [Example 58, N^2-isopropyl-N^4-(2-(trifluoromethyl)benzyl)quinazoline-2,4-diamine], the EC50 is 100 to 1000 nM. For `CC(C)Nc1nc(NCc2ccc(C(F)(F)F)cc2)c2sccc2n1` [Example 109, N^2-isopropyl-N^4-(4-(trifluoromethyl)benzyl)thieno[3,2-d]pyrimidine-2,4-diamine] the value was 1000 to 100000 nM; for `CC(C)Nc1nc(NCc2ccc(C(F)(F)F)nc2)c2ccccc2n1` [Example 114, N^2-isopropyl-N^4-((6-(trifluoromethyl)pyridin-3-yl)methyl)quinazoline-2,4-diamine], 100 to 1000 nM; for `N#CC1CCCN(c2nc(NCc3ccccc3C(F)(F)F)c3cccnc3n2)C1` (stereo not shown) [Example 262, 1-(4-((2-(trifluoromethyl)benzyl)amino)pyrido[2,3-d]pyrimidin-2-yl)piperidine-3-carbonitrile], 0.01 to 1 nM.

As to `CC(C)Nc1nc(Nc2ccccc2C(F)(F)F)c2sccc2n1` [Example 59, N^2-isopropyl-N^4-(2-(trifluoromethyl)phenyl)thieno[3,2-d]pyrimidin-2,4-amine], the EC50 lay in the range of 100 to 1000 nM. For `CN1CC(Nc2nc(NCc3cccnc3C(F)(F)F)c3cccnc3n2)C1` [Example 148, N^2-(1-methylazetidin-3-yl)-N^4-((2-(trifluoromethyl)pyridin-3-yl)methyl)pyrido[2,3-d]pyrimidine-2,4-diamine] the value was 1000 to 100000 nM. The same measure for `Cc1nc(N(C)C(C)c2ccccc2C(F)(F)F)c2sc(C=O)cc2n1` (stereo not shown) [Example 77]: 100 to 1000 nM; for `FC(F)C1CN(c2nc(NCc3cccnc3C(F)(F)F)c3cccnc3n2)C1` [Example 274, 2-(3-(difluoromethyl)azetidin-1-yl)-N-((2-(trifluoromethyl)pyridin-3-yl)methyl)pyrido[2,3-d]pyrimidin-4-amine]: 1 to 10 nM; for `CC(c1ccccc1C(F)(F)F)N(C)c1nc(Cl)nc2ccsc12` (stereo not shown) [Example 67, 2-chloro-N-methyl-N-(1-(2-(trifluoromethyl)phenyl)ethyl)thieno[3,2-d]pyrimidin-4-amine]: 100 to 1000 nM. The same measure for `CC(C)Nc1nc(NCc2ccc(C(F)(F)F)nc2)c2sccc2n1` [Example 119, N^2-isopropyl-N^4-((6-(trifluoromethyl)pyridin-3-yl)methyl)thieno[3,2-d]pyrimidine-2,4-diamine]: 100 to 1000 nM; for `FC(F)(F)c1ncccc1CNc1nc(N2CCCC23CCC3)nc2ncccc12` [Example 298]: < 0.01 nM; for `FC(F)(F)c1cnn(-c2nc(NCc3cccnc3C(F)(F)F)c3cccnc3n2)c1` [Example 203, 2-(4-(trifluoromethyl)-1H-pyrazol-1-yl)-N-((2-(trifluoromethyl)pyridin-3-yl)methyl)pyrido[2,3-d]pyrimidin-4-amine]: 100 to 1000 nM.

With `Cc1ccc(Nc2ncnc3ccsc23)c(C)c1` [Example 31, N-(2,4-dimethylphenyl)thieno[3,2-d]pyrimidin-4-amine], the EC50 was in the range of 1000 to 100000 nM.

In the case of `CC(C)Nc1nc(NCc2ccc(C#N)cc2)c2ccccc2n1` [Example 120, N^4-(4-cyanobenzyl)-N^2-isopropylquinazoline-2,4-diamine], the EC50 is 100 to 1000 nM. The same measure for `COc1ccccc1CNc1nc(NC(C)C)nc2ccccc12` [Example 139, N^2-isopropyl-N^4-(2-methoxybenzyl)quinazoline-2,4-diamine]: 100 to 1000 nM; for `FC(F)(F)c1ccccc1CNc1nc(N2CCOCC23CCCC3)nc2ncccc12` [Example 286, 2-(9-oxa-6-azaspiro[4.5]decan-6-yl)-N-(2-(trifluoromethyl)benzyl)pyrido[2,3-d]pyrimidin-4-amine]: 100 to 1000 nM; for `Fc1ccccc1CNc1ncnc2ccsc12` [Example 22, N-(2-fluorobenzyl)thieno[3,2-d]pyrimidin-4-amine]: 1000 to 100000 nM. The same measure for `CC(C)Nc1nc(NCc2ccc(S(C)(=O)=O)cc2)c2cccnc2n1` [Example 128, N^2-isopropyl-N^4-(4-(methylsulfonyl)benzyl)pyrido[2,3-d]pyrimidine-2,4-diamine]: 100 to 1000 nM; for `CC(C)N(C)c1nc(N2CCCN2c2ccccc2C(F)(F)F)c2cccnc2n1` [Example 190, N-isopropyl-N-methyl-4-(2-(2-(trifluoromethyl)phenyl)pyrazolidin-1-yl)pyrido[2,3-d]pyrimidin-2-amine]: 100 to 1000 nM; for `CNc1nc(NCc2ccccc2C(F)(F)F)c2cccnc2n1` [Example 143, N^2-methyl-N^4-(2-(trifluoromethyl)benzyl)pyrido[2,3-d]pyrimidine-2,4-diamine]: 10 to 100 nM.

In the case of `CC(C)N(C)c1nc(N2CCC2c2ccccc2C(F)(F)F)c2cccnc2n1` (stereo not shown) [Example 184, N-isopropyl-N-methyl-4-(2-(2-(trifluoromethyl)phenyl)azetidin-1-yl)pyrido[2,3-d]pyrimidin-2-amine], the EC50 was in the range of 0.01 to 1 nM. As for `FC(F)(F)c1cccc2c1CN(c1ncnc3ccsc13)C2` [Example 83], the EC50 is 1000 to 100000 nM. For `FC(F)(F)c1ccccc1CNc1nc(N2CCC(C(F)(F)F)C2)nc2ncccc12` (stereo not shown) [Example 266, N-(2-(trifluoromethyl)benzyl)-2-(3-(trifluoromethyl)pyrrolidin-1-yl)pyrido[2,3-d]pyrimidin-4-amine] the value was 1 to 10 nM.
